As usually defined, the IC50 is the point on the concentration scale where inhibition reaches its midpoint. A word on the Ki: it is a measure of affinity in units of concentration, obtained from inhibition or displacement.

Data set [1] addresses T1, Alpha-1A adrenergic receptor (Rattus norvegicus, UniProt P43140).
T1 sequence (P43140 whole entry): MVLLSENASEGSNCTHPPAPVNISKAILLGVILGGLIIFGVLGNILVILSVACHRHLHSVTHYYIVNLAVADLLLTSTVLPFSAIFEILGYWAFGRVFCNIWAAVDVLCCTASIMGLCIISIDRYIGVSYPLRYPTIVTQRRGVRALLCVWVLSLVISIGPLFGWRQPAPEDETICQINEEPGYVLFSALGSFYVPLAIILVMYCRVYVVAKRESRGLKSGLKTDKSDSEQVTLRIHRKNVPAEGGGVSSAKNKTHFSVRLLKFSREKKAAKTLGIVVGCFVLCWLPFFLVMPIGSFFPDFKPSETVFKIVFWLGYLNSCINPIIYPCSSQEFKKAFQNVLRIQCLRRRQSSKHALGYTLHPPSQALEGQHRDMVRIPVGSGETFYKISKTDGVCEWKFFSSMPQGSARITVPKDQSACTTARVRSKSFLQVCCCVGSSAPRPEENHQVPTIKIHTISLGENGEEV
The experiment in a line: DRUGMATRIX: Alpha-1A adrenergic receptor radioligand binding (ligand: prazosin). In kind it is cell membranes, Wistar, Submaxillary gland, Membrane. To be noted: Not Active = under 50% inhibition at 10 µM; for Ki: read-out: Ki.

Data set [2] concerns the target Melanocortin receptor 3 (Homo sapiens, UniProt P41968). In kind it is cell membranes, Membrane. To be noted: hek293. Further: in other assays of this panel Not Active means under 50% inhibition at 10 µM.
In data set [3] the target is T2, Amine oxidase [flavin-containing] A (Homo sapiens, UniProt P21397).
T2 sequence (P21397 whole entry): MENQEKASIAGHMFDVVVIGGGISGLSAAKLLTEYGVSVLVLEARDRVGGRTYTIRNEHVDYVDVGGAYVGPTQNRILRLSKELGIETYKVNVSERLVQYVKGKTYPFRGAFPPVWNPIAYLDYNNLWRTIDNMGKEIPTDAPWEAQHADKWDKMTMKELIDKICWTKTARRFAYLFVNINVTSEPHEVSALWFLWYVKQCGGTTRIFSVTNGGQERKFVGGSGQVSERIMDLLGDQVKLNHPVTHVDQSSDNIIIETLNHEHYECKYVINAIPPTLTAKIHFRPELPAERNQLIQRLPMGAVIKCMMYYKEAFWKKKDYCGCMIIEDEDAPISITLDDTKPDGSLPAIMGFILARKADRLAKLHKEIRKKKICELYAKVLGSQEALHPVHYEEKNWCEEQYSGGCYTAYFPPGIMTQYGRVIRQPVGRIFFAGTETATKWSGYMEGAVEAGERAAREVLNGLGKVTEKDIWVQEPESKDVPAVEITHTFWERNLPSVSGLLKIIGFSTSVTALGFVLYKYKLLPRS
The data set is described as follows: DRUGMATRIX: Monoamine Oxidase MAO-A enzyme inhibition (substrate: Kynuramine). The settings on record: bti-tn-5b1-4; Not Active = under 50% inhibition at 10 µM. The arrangement: species or system BTI-TN-5B1-4.

For data set [4], the target named is T3, Cathepsin G (Homo sapiens, UniProt P08311).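 Further: inhibition of Cathepsin G enzyme activity, tested on an AMC-conjugated peptide substrate; in other assays of this panel Not Active means under 50% inhibition at 10 µM.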
T3 sequence (P08311 whole entry): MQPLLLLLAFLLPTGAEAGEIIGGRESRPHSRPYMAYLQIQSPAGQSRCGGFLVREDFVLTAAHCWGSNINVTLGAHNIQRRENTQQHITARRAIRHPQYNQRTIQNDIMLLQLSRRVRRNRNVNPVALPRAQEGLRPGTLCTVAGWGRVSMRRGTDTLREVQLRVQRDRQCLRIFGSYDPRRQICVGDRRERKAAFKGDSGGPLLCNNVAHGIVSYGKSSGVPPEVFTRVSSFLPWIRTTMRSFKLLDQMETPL
Type of data set: tissue-based. To be noted: neutrophil.

Data set [5] concerns the target Tyrosine-protein kinase Fyn (Homo sapiens, UniProt P06241). The data set is described as follows: biochemical. Type of data set: cell-based, Insect cells.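 Further: enzymatic inhibition of Fyn kinase activity measured with Poly(Glu:Tyr) as the phosphorylation substrate; in other assays of this panel Not Active means under 50% inhibition at 10 µM.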
In data set [6] the target is Receptor tyrosine-protein kinase erbB-2 (Homo sapiens, UniProt P04626). The data set is described as follows: biochemical. In kind it is cell-based, Insect cells.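 Further: inhibition of HER2 kinase enzyme activity, measured with Poly(Glu:Tyr) as the phosphorylation substrate; in other assays of this panel Not Active means under 50% inhibition at 10 µM.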
Chain of Receptor tyrosine-protein kinase erbB-2 (P04626 whole entry): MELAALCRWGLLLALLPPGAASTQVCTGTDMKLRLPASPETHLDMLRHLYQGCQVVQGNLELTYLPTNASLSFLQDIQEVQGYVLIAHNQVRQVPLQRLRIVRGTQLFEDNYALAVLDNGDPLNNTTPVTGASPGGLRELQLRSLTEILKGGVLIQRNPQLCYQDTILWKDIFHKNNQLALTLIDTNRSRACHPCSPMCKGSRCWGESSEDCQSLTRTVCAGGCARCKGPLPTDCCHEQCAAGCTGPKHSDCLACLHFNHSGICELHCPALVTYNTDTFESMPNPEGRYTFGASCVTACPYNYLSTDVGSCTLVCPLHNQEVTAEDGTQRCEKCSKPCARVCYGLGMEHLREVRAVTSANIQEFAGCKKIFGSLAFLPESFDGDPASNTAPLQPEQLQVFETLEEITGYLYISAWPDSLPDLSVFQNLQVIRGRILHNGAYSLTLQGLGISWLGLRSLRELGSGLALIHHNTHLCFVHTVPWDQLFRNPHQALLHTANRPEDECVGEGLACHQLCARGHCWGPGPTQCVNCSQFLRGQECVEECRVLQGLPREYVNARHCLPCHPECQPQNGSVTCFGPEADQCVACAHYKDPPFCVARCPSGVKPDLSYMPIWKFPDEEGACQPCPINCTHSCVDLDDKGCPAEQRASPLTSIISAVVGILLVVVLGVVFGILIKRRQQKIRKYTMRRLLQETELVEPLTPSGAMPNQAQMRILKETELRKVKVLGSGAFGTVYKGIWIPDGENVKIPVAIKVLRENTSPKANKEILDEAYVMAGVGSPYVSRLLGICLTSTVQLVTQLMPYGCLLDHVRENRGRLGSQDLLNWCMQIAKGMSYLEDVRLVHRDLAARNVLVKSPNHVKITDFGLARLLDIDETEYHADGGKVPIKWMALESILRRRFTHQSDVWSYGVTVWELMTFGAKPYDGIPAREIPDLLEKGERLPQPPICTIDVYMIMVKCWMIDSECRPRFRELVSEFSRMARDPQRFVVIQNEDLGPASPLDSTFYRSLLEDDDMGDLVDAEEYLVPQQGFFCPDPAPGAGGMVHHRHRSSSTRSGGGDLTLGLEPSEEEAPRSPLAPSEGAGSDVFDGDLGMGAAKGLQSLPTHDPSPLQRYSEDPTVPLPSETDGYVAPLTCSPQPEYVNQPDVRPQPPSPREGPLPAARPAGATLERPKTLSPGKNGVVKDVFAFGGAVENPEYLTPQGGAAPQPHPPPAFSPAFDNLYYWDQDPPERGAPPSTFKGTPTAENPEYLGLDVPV
The target in data set [7] is Cytochrome P450 3A4 (Homo sapiens, UniProt P08684). To be noted: bti-tn-5b1-4. Further: in other assays of this panel Not Active means under 50% inhibition at 10 µM.
Chain of Cytochrome P450 3A4 (P08684 whole entry): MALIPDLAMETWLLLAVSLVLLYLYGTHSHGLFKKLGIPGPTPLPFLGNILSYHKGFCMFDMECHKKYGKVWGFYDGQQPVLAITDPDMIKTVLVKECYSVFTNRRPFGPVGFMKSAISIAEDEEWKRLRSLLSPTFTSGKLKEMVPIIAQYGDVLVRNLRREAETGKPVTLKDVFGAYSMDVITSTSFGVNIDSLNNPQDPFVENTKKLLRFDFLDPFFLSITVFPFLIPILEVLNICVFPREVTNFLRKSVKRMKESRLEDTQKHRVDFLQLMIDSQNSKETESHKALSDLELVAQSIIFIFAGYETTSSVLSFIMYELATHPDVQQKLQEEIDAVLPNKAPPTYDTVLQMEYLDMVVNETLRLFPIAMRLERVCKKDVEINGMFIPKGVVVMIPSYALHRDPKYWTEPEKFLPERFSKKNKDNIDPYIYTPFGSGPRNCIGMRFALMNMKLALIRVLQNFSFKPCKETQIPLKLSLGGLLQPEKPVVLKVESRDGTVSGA

Chain of Melanocortin receptor 3 (P41968 whole entry): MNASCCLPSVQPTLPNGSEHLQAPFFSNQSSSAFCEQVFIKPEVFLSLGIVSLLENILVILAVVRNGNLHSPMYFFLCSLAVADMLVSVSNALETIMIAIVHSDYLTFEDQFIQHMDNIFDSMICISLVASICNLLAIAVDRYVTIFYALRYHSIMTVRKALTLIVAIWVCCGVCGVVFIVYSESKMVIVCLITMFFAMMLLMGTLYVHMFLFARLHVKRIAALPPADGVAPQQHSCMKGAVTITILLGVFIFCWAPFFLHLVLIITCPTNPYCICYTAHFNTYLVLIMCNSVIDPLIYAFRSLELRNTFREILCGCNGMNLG
Chain of Tyrosine-protein kinase Fyn (P06241 whole entry): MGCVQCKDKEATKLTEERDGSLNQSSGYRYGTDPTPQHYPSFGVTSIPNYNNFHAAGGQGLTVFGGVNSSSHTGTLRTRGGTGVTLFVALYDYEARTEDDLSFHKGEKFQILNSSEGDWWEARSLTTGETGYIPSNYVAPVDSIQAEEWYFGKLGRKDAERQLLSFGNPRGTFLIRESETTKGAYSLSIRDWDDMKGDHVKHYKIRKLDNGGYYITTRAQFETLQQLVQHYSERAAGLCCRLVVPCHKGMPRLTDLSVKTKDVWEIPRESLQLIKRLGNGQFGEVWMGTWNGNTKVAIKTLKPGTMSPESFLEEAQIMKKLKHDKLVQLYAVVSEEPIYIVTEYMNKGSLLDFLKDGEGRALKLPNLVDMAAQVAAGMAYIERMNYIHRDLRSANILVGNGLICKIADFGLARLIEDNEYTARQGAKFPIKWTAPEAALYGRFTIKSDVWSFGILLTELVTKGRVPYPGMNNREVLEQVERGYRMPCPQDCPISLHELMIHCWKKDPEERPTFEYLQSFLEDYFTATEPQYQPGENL

As to `CCCCC(=O)N(Cc1ccc(-c2ccccc2-c2nnn[nH]2)cc1)[C@H](C(=O)O)C(C)C`, the IC50 entry in data set [1], in data set [2], in data set [3], in data set [4], in data set [5] (insect cells) and in data set [6] (insect cells) was “Not Active” in each case. Besides, in data set [7], the half-inhibitory concentration (IC50) entry is “Not Active”. Moreover, the Ki entry in data set [7] is recorded as “Not Active”.
As for `O=C(O)COc1ccc(C(=O)c2cccs2)c(Cl)c1Cl`, the IC50 result in data set [1], in data set [2], in data set [3], in data set [4], in data set [5] (insect cells) and in data set [6] (insect cells) was “Not Active” throughout. In addition, the IC50 entry in data set [7] is “Not Active”. The Ki entry in data set [7] was “Not Active”.
With `CN1[C@@H]2CC[C@H]1C[C@@H](OC(c1ccccc1)c1ccccc1)C2` [BENZTROPINE], the IC50 in data set [1] (read-out: IC50) is 0.142 µM; in data set [2], “Not Active”; in data set [3], “Not Active”; in data set [4], “Not Active”; in data set [5] (insect cells), “Not Active”; in data set [6] (insect cells), “Not Active”. Also, in data set [7], the IC50 result is “Not Active”. Also, the Ki in data set [1] is 0.057 µM; in data set [7] it was “Not Active”.
Turning to `C[C@@](Cc1ccc(O)c(O)c1)(NN)C(=O)O.O` [CARBIDOPA], the IC50 result is “Not Active” in data set [1]; “Not Active” in data set [2]; “Not Active” in data set [3]; “Not Active” in data set [4]; 3.73 µM in data set [5] (read-out: IC50); “Not Active” in data set [6] (insect cells). In data set [7], the IC50 result was “Not Active”. In addition, in data set [7], the Ki entry was “Not Active”.
As to `CN1CCN(C2=Nc3cc(Cl)ccc3Nc3ccccc32)CC1` [CLOZAPINE], the IC50 result in data set [2], in data set [3], in data set [4], in data set [5] (insect cells) and in data set [6] (insect cells) was “Not Active” throughout.
In the case of `CC(C)NC[C@@H](O)COc1cccc2ccccc12` [DEXPROPRANOLOL], the half-maximal inhibitory concentration (IC50) result in data set [1], in data set [2], in data set [3], in data set [4], in data set [5] (insect cells) and in data set [6] (insect cells) was “Not Active” each time. The IC50 entry in data set [7] is “Not Active”. Besides, the Ki result in data set [7] is listed as “Not Active”.
For `CC(C)NC[C@H](O)COc1cccc2ccccc12` [LEVOPROPRANOLOL], the IC50 entry in data set [1], in data set [2], in data set [3], in data set [4], in data set [5] (insect cells) and in data set [6] (insect cells) was “Not Active” each time. Moreover, the IC50 result in data set [7] was “Not Active”. Besides, in data set [7], the Ki entry is given as “Not Active”.
For the molecule `O=C(O)CCCCC1CCSS1` (stereo not drawn) [LIPOIC ACID, ALPHA], the IC50 result in data set [1], in data set [2], in data set [3], in data set [4], in data set [5] (insect cells) and in data set [6] (insect cells) was “Not Active” each time. The IC50 entry in data set [7] is “Not Active”. In addition, in data set [7], the Ki entry is “Not Active”.
`CN(C)C(=O)C(CCN1CCC(O)(c2ccc(Cl)cc2)CC1)(c1ccccc1)c1ccccc1` [LOPERAMIDE]: the IC50 in data set [1] (read-out: IC50) is 6.22 µM; in data set [2], “Not Active”; in data set [3], “Not Active”; in data set [4] it was “Not Active”; in data set [5] (insect cells), “Not Active”; in data set [6] (insect cells) it was “Not Active”. In data set [7], the IC50 entry is recorded as “Not Active”. Further, the Ki in data set [1] was 2.52 µM; in data set [7], “Not Active”.
Consider `Clc1ccc(COC(Cn2ccnc2)c2ccc(Cl)cc2Cl)c(Cl)c1` (configuration not stated) [MICONAZOLE], for which the IC50 result in data set [1] is “Not Active”; in data set [3] it was “Not Active”; in data set [4], “Not Active”; in data set [5] (read-out: IC50) it was 4.16 µM; in data set [6] (read-out: IC50), 27.4 µM.
Turning to `Oc1ccc2c3c1O[C@H]1[C@@H](O)CC[C@@]4(O)[C@@H](C2)N(CC2CCC2)CC[C@]314` [NALBUPHINE], the concentration for half-maximal inhibition (IC50) result in data set [1], in data set [2], in data set [3], in data set [4], in data set [5] (insect cells) and in data set [6] (insect cells) was “Not Active” in each case.
For the molecule `C[C@]12C=CC(=O)C=C1CC[C@@H]1[C@@H]2C(=O)C[C@@]2(C)[C@H]1CC[C@]2(O)C(=O)CO` [PREDNISONE], the IC50 result in data set [1], in data set [2], in data set [3], in data set [4], in data set [5] (insect cells) and in data set [6] (insect cells) was “Not Active” each time.
On to `OCCOCCN1CCN(C2=Nc3ccccc3Sc3ccccc32)CC1` [QUETIAPINE], for which the IC50 entry in data set [2], in data set [3], in data set [4], in data set [5] (insect cells), in data set [6] (insect cells) and in data set [7] was “Not Active” in each case. Moreover, the Ki entry in data set [7] is “Not Active”.
With `COC(=O)[C@H]1[C@H]2C[C@@H]3c4[nH]c5cc(OC)ccc5c4CCN3C[C@H]2C[C@@H](OC(=O)c2cc(OC)c(OC)c(OC)c2)[C@@H]1OC` [RESERPINE], the IC50 result in data set [1], in data set [2], in data set [3], in data set [4], in data set [5] (insect cells) and in data set [6] (insect cells) was “Not Active” throughout. In addition, the IC50 result in data set [7] is recorded as “Not Active”. Besides, the Ki result in data set [7] is “Not Active”.
Regarding `O=C(O)c1ccccc1O` [SALICYLIC ACID], the IC50 entry in data set [1], in data set [2], in data set [3], in data set [4], in data set [5] (insect cells) and in data set [6] (insect cells) was “Not Active” each time. The IC50 result in data set [7] is reported as “Not Active”. Further, the Ki entry in data set [7] is given as “Not Active”.
In the case of `C[S+]([O-])c1ccc(-c2nc(-c3ccncc3)c(-c3ccc(F)cc3)[nH]2)cc1` (configuration not stated) [SB-203580], the IC50 entry in data set [1], in data set [2], in data set [3], in data set [4] and in data set [7] was “Not Active” throughout. In addition, in data set [7], the Ki entry is listed as “Not Active”.
On to `CC1CCC(NC(=O)N(CCCl)N=O)CC1` (configuration not stated) [SEMUSTINE], for which the IC50 result in data set [1], in data set [2], in data set [3], in data set [4], in data set [5] (insect cells) and in data set [6] (insect cells) was “Not Active” in each case. Besides, the IC50 result in data set [7] was “Not Active”. For the same molecule, the Ki entry in data set [7] is on record as “Not Active”.
In the case of `O=C1C[C@@H]2OCC=C3CN4CC[C@]56c7ccccc7N1[C@H]5[C@H]2[C@H]3C[C@H]46` [STRYCHNINE], the IC50 entry in data set [1], in data set [2], in data set [3], in data set [4], in data set [5] (insect cells) and in data set [6] (insect cells) was “Not Active” in each case. Further, the IC50 result in data set [7] is “Not Active”. In addition, in data set [7], the Ki result is recorded as “Not Active”.
As to `C[N+](C)(C)CCOC(=O)CCC(=O)OCC[N+](C)(C)C.[Cl-].[Cl-]` [SUCCINYLCHOLINE CHLORIDE], the half-inhibitory concentration (IC50) result in data set [1], in data set [2], in data set [3], in data set [4], in data set [5] (insect cells) and in data set [6] (insect cells) was “Not Active” throughout. Besides, in data set [7], the IC50 result is reported as “Not Active”. Also, the Ki result in data set [7] is “Not Active”.
Take `CN1CCN(CCCN2c3ccccc3Sc3ccc(C(F)(F)F)cc32)CC1` [TRIFLUOPERAZINE]: the IC50 result in data set [1], in data set [2], in data set [3], in data set [4], in data set [5] (insect cells) and in data set [6] (insect cells) was “Not Active” throughout.

(Values after ChEMBL document CHEMBL1909046, “DrugMatrix in vitro pharmacology data”.)
